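48-hour exposure; five concentrations; linearly interpolated endpoints. Here, GI50 denotes the concentration required for 50% inhibition of growth. TGI: total growth inhibition.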

Among the test systems are SK-MEL-5 melanoma; M14 melanoma; KM12 colon; RPMI-8226 leukemia; UACC-62 melanoma; COLO 205 colon; SNB-75 CNS; NCI-H460 lung; HCC-2998 colon; EKVX NSCLC.
What all share (test): NCI anticancer screen, dose series, 48 h

For `CN[C@H](C#Cc1c(F)ccc2c1/C(=C/c1[nH]ccc1OC)C(=O)N2)CO`, the GI50 in the test on SK-MEL-5 melanoma is 0.511 µM; in the test with M14 melanoma, 0.403 µM; with KM12 colon it was 0.036 µM; in the test on RPMI-8226 leukemia it was 0.689 µM; in the test on UACC-62 melanoma, 0.671 µM; with COLO 205 colon, 0.897 µM. In addition, the GI50 with SNB-75 CNS is 0.0777 µM; in the test on NCI-H460 lung, 0.358 µM; in the test with HCC-2998 colon, 0.746 µM. The TGI in the test with SK-MEL-5 melanoma was 1.92 µM; in the test on M14 melanoma it was 3.14 µM; in the test on KM12 colon, 1.76 µM; in the test with RPMI-8226 leukemia, 1.8 µM; in the test with UACC-62 melanoma it was 4.6 µM; with COLO 205 colon it was 3.39 µM. For the same compound, the TGI amounted to 3.88 µM in the test on SNB-75 CNS, 2.58 µM in the test on NCI-H460 lung and 3.27 µM with HCC-2998 colon.

`CCC(C)[C@H]1O[C@]2(C=C[C@@H]1C)C[C@@H]1C[C@@H](C/C=C(\C)[C@@H](OC3C[C@H](OC)C(O[C@H]4C[C@H](OC)[C@@H](O)[C@H](C)O4)[C@H](C)O3)[C@@H](C)/C=C/C=C3\CO[C@@H]4[C@H](O)C(C)=C[C@@H](C(=O)O1)[C@]34O)O2` (some centres undefined): the GI50 in the test with SK-MEL-5 melanoma was 0.991 µM; in the test with M14 melanoma it was 1.04 µM; with KM12 colon, 1.67 µM; with RPMI-8226 leukemia it was 1.58 µM; in the test on UACC-62 melanoma it was 1.53 µM; in the test with COLO 205 colon, 0.86 µM. The GI50 in the test on SNB-75 CNS is 2.74 µM; in the test with HCC-2998 colon, 0.843 µM. The TGI in the test with SK-MEL-5 melanoma came out at 2.28 µM; in the test on M14 melanoma, 2.33 µM; with KM12 colon it was 5.96 µM; in the test with RPMI-8226 leukemia, 50 µM; in the test on UACC-62 melanoma, 7.64 µM; in the test with COLO 205 colon, 1.62 µM. For the same compound, the TGI with SNB-75 CNS was found to be 9.09 µM; in the test with HCC-2998 colon it was 1.67 µM.

Regarding `COc1ccc(-c2nc(-c3ccccc3)c(-c3ccccc3)[nH]2)cc1OC1CCCC1`, the GI50 with SK-MEL-5 melanoma is more than 100 µM; in the test with M14 melanoma, more than 100 µM; with KM12 colon, 40.9 µM; with RPMI-8226 leukemia it was 38.1 µM; with UACC-62 melanoma, more than 100 µM; with COLO 205 colon, more than 100 µM. Also, the GI50 with SNB-75 CNS, with NCI-H460 lung and in the test on HCC-2998 colon was more than 100 µM throughout. Also, the TGI with SK-MEL-5 melanoma, in the test with M14 melanoma, in the test with KM12 colon, with RPMI-8226 leukemia, in the test on UACC-62 melanoma and in the test on COLO 205 colon was more than 100 µM throughout. Further, the TGI in the test with SNB-75 CNS, in the test with NCI-H460 lung and in the test on HCC-2998 colon was more than 100 µM throughout.

`CCCc1cc(=O)[nH]c(-n2nc(C)cc2C)n1`: the GI50 was 3.18 µM in the test with SK-MEL-5 melanoma; 2.91 µM with M14 melanoma; 5.25 µM with KM12 colon; 5.16 µM in the test on RPMI-8226 leukemia; 2.31 µM with UACC-62 melanoma; 8.45 µM in the test on COLO 205 colon. Besides, the values for the GI50 in the test with SNB-75 CNS, with NCI-H460 lung and with HCC-2998 colon were 40.3 µM, 1.26 µM and 14.3 µM, respectively. Also, the TGI with SK-MEL-5 melanoma was 47.6 µM; with M14 melanoma, more than 100 µM; with KM12 colon it was more than 100 µM; in the test on RPMI-8226 leukemia, 28.4 µM; in the test on UACC-62 melanoma it was 35.7 µM; in the test with COLO 205 colon it was more than 100 µM. Further, the TGI with SNB-75 CNS, in the test on NCI-H460 lung and in the test with HCC-2998 colon was more than 100 µM in each case.

As to `C1=CC=C2NCCCCCCCNC3=CC=CC=CC3=NCCCCCCCN=C2C=C1`, the TGI in the test on KM12 colon is more than 100 µM; in the test on RPMI-8226 leukemia it was more than 100 µM; with COLO 205 colon, more than 100 µM; in the test on EKVX NSCLC, more than 100 µM; in the test with SNB-75 CNS, 67.9 µM; with NCI-H460 lung, more than 100 µM. This compound yielded a TGI with HCC-2998 colon of more than 100 µM.

As to `CCOC(=O)c1cc2c(n1Cc1cccc(OC)c1)-c1oncc1CCC2`, the GI50 in the test on SK-MEL-5 melanoma was 0.693 µM; with M14 melanoma, 0.693 µM; with KM12 colon, 0.58 µM; in the test on RPMI-8226 leukemia, 1.81 µM; in the test with UACC-62 melanoma, 0.712 µM; in the test with COLO 205 colon, 0.78 µM. Besides, the figures for the GI50 with SNB-75 CNS, in the test with NCI-H460 lung and with HCC-2998 colon were 0.927 µM, 3.52 µM and 5.58 µM, respectively. The TGI is 14.8 µM in the test with SK-MEL-5 melanoma; more than 100 µM in the test with M14 melanoma; more than 100 µM in the test on KM12 colon; more than 43 µM in the test with RPMI-8226 leukemia; more than 100 µM in the test with UACC-62 melanoma; 23.8 µM in the test on COLO 205 colon. Further, the TGI with SNB-75 CNS was 6.56 µM; in the test with NCI-H460 lung, more than 100 µM; in the test with HCC-2998 colon, more than 96.4 µM.

`O=C1c2cccc(NCCN=Cc3cc([N+](=O)[O-])ccc3O)c2C(=O)c2c(NCCN=Cc3cc([N+](=O)[O-])ccc3O)cccc21`: the GI50 in the test on M14 melanoma is 26.8 µM; in the test on KM12 colon it was 2.8 µM; in the test with RPMI-8226 leukemia it was 1.03 µM; in the test with UACC-62 melanoma it was 33 µM; in the test on COLO 205 colon it was 1.78 µM; in the test on EKVX NSCLC, 16.1 µM. The GI50 was 2.16 µM in the test on SNB-75 CNS and 5.87 µM in the test on HCC-2998 colon. The TGI with M14 melanoma was more than 100 µM; with KM12 colon it was more than 100 µM; in the test with RPMI-8226 leukemia, 4.35 µM; in the test on UACC-62 melanoma, more than 100 µM; in the test with COLO 205 colon, 20.2 µM; with EKVX NSCLC, more than 100 µM. For the same compound, the TGI in the test on SNB-75 CNS is 19 µM; with HCC-2998 colon, more than 100 µM.

Regarding `CCN(Cc1ccc(F)cc1)c1ccc(CO)c(F)c1`, the GI50 is 10.9 µM in the test on SK-MEL-5 melanoma; 20.4 µM in the test with M14 melanoma; 22.9 µM with KM12 colon; 7.13 µM with RPMI-8226 leukemia; 1.62 µM in the test with UACC-62 melanoma; 10.8 µM in the test with COLO 205 colon. For the same compound, the GI50 in the test with SNB-75 CNS was 10 µM; in the test on NCI-H460 lung, 3.93 µM; in the test on HCC-2998 colon it was 18.7 µM. Also, the TGI in the test with SK-MEL-5 melanoma is 24.2 µM; in the test with M14 melanoma, more than 67.5 µM; in the test on KM12 colon, more than 71.8 µM; with RPMI-8226 leukemia, 33.7 µM; with UACC-62 melanoma, 7.42 µM; in the test with COLO 205 colon, 27.6 µM. Also, the TGI in the test on SNB-75 CNS was more than 86.4 µM; with NCI-H460 lung, 20.4 µM; in the test on HCC-2998 colon it was 54.6 µM.

For the origin of these results see PubChem BioAssay (NCI).
